Laboratory results from US20210277003A1, “OGA INHIBITOR COMPOUNDS” (Janssen Pharmaceutica NV, priority 2018, published 2021).

Experiments:
[1] = biological target: T1, recombinant human Meningioma Expressed Antigen 5 (MGEA5), also referred to as O-GlcNAcase (OGA) (Homo sapiens, UniProt O60502); experiment: OGA biochemical assay: inhibition of hydrolysis of fluorescein mono-ß-D-N-Acetyl-Glucosamine (FM-GlcNAc), fluorescence readout; settings: FM-GlcNAc substrate; for Emax: read-out: Enzymatic Emax (%); for IC50: read-out: Enzymatic hOGA, pIC50 (converted)
T1 construct: Full length OGA enzyme was purchased at OnGene (cat #TP322411); purchased OnGene (so in the source)
T1 sequence (O60502 1-916): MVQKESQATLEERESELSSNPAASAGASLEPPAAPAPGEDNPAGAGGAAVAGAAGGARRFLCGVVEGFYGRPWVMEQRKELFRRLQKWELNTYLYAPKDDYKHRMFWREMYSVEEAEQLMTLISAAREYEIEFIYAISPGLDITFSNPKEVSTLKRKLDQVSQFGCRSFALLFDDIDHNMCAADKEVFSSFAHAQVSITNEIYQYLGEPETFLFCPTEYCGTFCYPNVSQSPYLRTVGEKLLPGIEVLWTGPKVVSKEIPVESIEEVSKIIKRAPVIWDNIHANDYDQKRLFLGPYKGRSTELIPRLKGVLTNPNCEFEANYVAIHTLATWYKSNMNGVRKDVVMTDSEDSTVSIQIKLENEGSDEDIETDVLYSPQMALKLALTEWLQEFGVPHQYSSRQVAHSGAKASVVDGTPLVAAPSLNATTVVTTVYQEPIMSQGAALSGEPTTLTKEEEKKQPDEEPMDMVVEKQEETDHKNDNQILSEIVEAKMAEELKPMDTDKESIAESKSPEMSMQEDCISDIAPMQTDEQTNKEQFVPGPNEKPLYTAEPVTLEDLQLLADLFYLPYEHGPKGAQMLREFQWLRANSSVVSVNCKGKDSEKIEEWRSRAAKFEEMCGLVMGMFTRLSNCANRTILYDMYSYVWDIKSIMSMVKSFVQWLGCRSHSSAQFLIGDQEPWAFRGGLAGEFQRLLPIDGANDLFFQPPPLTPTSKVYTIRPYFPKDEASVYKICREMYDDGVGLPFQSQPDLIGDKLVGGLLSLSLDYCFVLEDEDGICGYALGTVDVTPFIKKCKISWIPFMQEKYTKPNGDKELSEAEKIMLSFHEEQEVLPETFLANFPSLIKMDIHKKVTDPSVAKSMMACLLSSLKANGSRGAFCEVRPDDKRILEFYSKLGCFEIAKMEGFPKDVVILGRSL
Text: The assay is based on the inhibition of the hydrolysis of fluorescein mono-ß-D-N-Acetyl-Glucosamine (FM-GlcNAc) (Mariappa et al. 2015, Biochem J 470:255) by the recombinant human Meningioma Expressed Antigen 5 (MGEA5), also referred to as O-GlcNAcase (OGA). The hydrolysis FM-GlcNAc (Marker Gene technologies, cat #M1485) results in the formation of ß-D-N-glucosamineacetate and fluorescein. The fluorescence of the latter can be measured at excitation wavelength 485 nm and emission wavelength 538 nm. An increase in enzyme activity results in an increase in fluorescence signal. Full length OGA enzyme was purchased at OnGene (cat #TP322411). The enzyme was stored in 25 mM Tris.HCl, pH 7.3, 100 mM glycine, 10% glycerol at −20° C. Thiamet G and GlcNAcStatin were tested as reference compounds (Yuzwa et al. 2008 Nature Chemical Biology 4:483; Yuzwa et al. 2012 Nature Chemical Biology 8:393). The assay was performed in 200 mM Citrate/phosphate buffer supplemented with 0.005% Tween-20. 35.6 g Na2HPO4 2 H2O (Sigma, #C0759) were dissolved in 1 L water to obtain a 200 mM solution. 19.2 g citric acid (Merck, #1.06580) was dissolved in 1 L water to obtain a 100 mM solution. pH of the sodium phosphate solution was adjusted with the citric acid solution to 7.2. The buffer to stop the reaction consists of a 500 mM Carbonate buffer, pH 11.0. 734 mg FM-GlcNAc were dissolved in 5.48 mL DMSO to obtain a 250 mM solution and was stored at −20° C. OGA was used at a 2 nM concentration and FM-GlcNAc at a 100 uM final concentration. Dilutions were prepared in assay buffer. 50 nl of a compound dissolved in DMSO was dispensed on Black Proxiplate™ 384 Plus Assay plates (Perkin Elmer, #6008269) and 3 μl fl-OGA enzyme mix added subsequently. Plates were pre-incubated for 60 min at room temperature and then 2 μl FM-GlcNAc substrate mix added. […] Plates were briefly centrifuged for 1 min at 1000 rpm and incubate at room temperature for 6 h. To stop the reaction 5 μl STOP buffer were added and plates centrifuge again 1 min at 1000 rpm. Fluorescence was quantified in the Thermo Scientific Fluoroskan Ascent or the PerkinElmer EnVision with excitation wavelength 485 nm and emission wavelength 538 nm. For analysis a best-fit curve is fitted by a minimum sum of squares method. From this an IC50 value and Hill coefficient was obtained. High control (no inhibitor) and low control (saturating concentrations of standard inhibitor) were used to define the minimum and maximum values.

[2] = system: OGA in HEK293 cells inducible for P301L mutant human Tau (isoform 2N4R); experiment: OGA cellular assay: immunocytochemical detection of O-GlcNAcylated proteins (CTD110.6 antibody); format: cell-based; settings: 6 hours incubation; for Emax / EC50: Homo sapiens, HEK293, 6 h; for Emax: maximum = Thiamet G 200 uM; for EC50: read-out: Cellular hOGA, pEC50 (converted)
Description: HEK293 cells inducible for P301L mutant human Tau (isoform 2N4R) were established at Janssen. Thiamet-G was used for both plate validation (high control) and as reference compound (reference EC50 assay validation). OGA inhibition is evaluated through the immunocytochemical (ICC) detection of O-GlcNAcylated proteins by the use of a monoclonal antibody (CTD110.6; Cell Signaling, #9875) detecting 0-GlcNAcylated residues as previously described (Dorfmueller et al. 2010 Chemistry & biology, 17:1250). Inhibition of OGA will result in an increase of O-GlcNAcylated protein levels resulting in an increased signal in the experiment. Cell nuclei are stained with Hoechst to give a cell culture quality control and a rough estimate of immediate compounds toxicity, if any. ICC pictures are imaged with a Perkin Elmer Opera Phenix plate microscope and quantified with the provided software Perkin Elmer Harmony 4.1.
Cells were propagated in DMEM high Glucose (Sigma, #D5796) following standard procedures. 2 days before the cell assay cells are split, counted and seeded in Poly-D-Lysine (PDL) coated 96-wells (Greiner, #655946) plate at a cell density of 12,000 cells per cm^2 (4,000 cells per well) in 100p of Assay Medium (Low Glucose medium is used to reduce basal levels of GlcNAcylation) (Park et al. 2014 The Journal of biological chemistry 289:13519). At the day of compound test medium from assay plates was removed and replenished with 90 µl of fresh Assay Medium. 10p of compounds at a 10 fold final concentration were added to the wells. Plates were centrifuged shortly before incubation in the cell incubator for 6 hours. DMSO concentration was set to 0.2%. Medium is discarded by applying vacuum. For staining of cells medium was removed and cells washed once with 100 μl D-PBS (Sigma, #D8537). From next step onwards unless other stated assay volume was always 50p and incubation was performed without agitation and at room temperature. Cells were fixed in 50 μl of a 4% paraformaldehyde (PFA, Alpha aesar, #043368) PBS solution for 15 minutes at room temperature. […] Before analysis samples were washed 2 times manually for 5 minutes in ICC base buffer.
Imaging is performed using Perkin Elmer Phenix Opera using a water 20× objective and recording 9 fields per well. Intensity readout at 488 nm is used as a measure of O-GlcNAcylation level of total proteins in wells. To assess potential toxicity of compounds nuclei were counted using the Hoechst staining. IC50-values are calculated using parametric non-linear regression model fitting. As a maximum inhibition Thiamet G at a 200 uM concentration is present on each plate. In addition, a concentration response of Thiamet G is calculated on each plate.

Row | Structure (SMILES) | Emax [1] | IC50 [1] | Emax [2] | EC50 [2] | Enzymatic hOGA; pIC50 [1] | Cellular hOGA; pEC50 [2]
1 | CC(C)(C#N)Cn1ccc2c(Nc3c(Cl)cc(F)cc3Cl)nccc21 [Compound 83] | 96% | 912 nM | 8% | > 1000 nM | – | –
2 | Cc1cncc(C(F)(F)F)c1Nc1nccc2c1ccn2CCC1CC1 [Compound 194] | 104% | 7.76 nM | 67.9% | 79.4 nM | – | –
3 | Cc1cncc(Cl)c1Nc1nccc2c1ccn2CCC1CC1 [Compound 65] | 104% | 5.37 nM | 69% | 120 nM | – | –
4 | CCCCn1ccc2c(Nc3c(C)cccc3C)nccc21 [Compound 72] | 100% | 5.62 nM | 78% | 53.7 nM | – | –
5 | Clc1cccc(Cl)c1Nc1nccc2c1ccn2Cc1ncco1 [Compound 169] | 104% | 12 nM | 67.5% | 550 nM | – | –
6 | Clc1cccc(Cl)c1Nc1nccc2c1ccn2CC1CCO1 (centres unmarked) [Compound 159] | 104% | – | 84% | 20.4 nM | 8.87 | –
7 | CC[C@H](O)Cn1ccc2c(Nc3c(C)cc(C(F)(F)F)cc3C)nccc21 [Compound 124b] | 102% | – | 76.7% | 27.5 nM | 8.04 | –
8 | CCCCn1ccc2c(Nc3c(F)cncc3CC)nccc21 [Compound 44] | 100% | 35.5 nM | 69% | 302 nM | – | –
9 | CCCCn1ccc2c(Nc3c(C)cc(C(=O)N(C)C)cc3C)nccc21 [Compound 61] | 103% | 3.72 nM | 92% | 5.89 nM | – | –
10 | CCCCn1ccc2c(Nc3c(C)cc(C(=O)OC)cc3C)nccc21 [Compound 64] | 102% | 3.98 nM | 80% | 24.5 nM | – | –
11 | Clc1cccc(Cl)c1Nc1nccc2c1ccn2CC1COC1 [Compound 35] | 100% | 148 nM | 20% | > 1000 nM | – | –
12 | Cc1cc(F)cc(C(C)C)c1Nc1nccc2c1ccn2CC1CCO1 (centres unmarked) [Compound 163] | 104% | – | 90.3% | 4.17 nM | 8.63 | –
13 | CCCCn1ccc2c(Nc3c(C)cc(C)cc3C)nccc21 [Compound 68] | 104% | 3.8 nM | 87% | 57.5 nM | – | –
14 | Cc1cc2c(c(C)c1Nc1nccc3c1ccn3CC1CC(F)(F)C1)OCCO2 [Compound 175] | 100% | 6.31 nM | 80.1% | 37.2 nM | – | –
15 | Cc1c(F)cnc(C(C)C)c1Nc1nccc2c1ccn2CC1CCO1 (centres unmarked) [Compound 127] | 103% | – | 76.7% | 11.5 nM | 8.75 | –
16 | Cc1ccnc(C)c1Nc1nccc2c1ccn2CC1CCO1 (centres unmarked) [Compound 25] | 104% | 4.79 nM | 89% | 38 nM | – | –
17 | Cc1cc(F)cc(C)c1Nc1nccc2c1ccn2CC(C)(F)F [Compound 126] | 100% | – | 87.1% | 10.5 nM | 8.67 | –
18 | CCC(F)(F)Cn1ccc2c(Nc3c(C)ccnc3C(C)C)nccc21 [Compound 112] | 102% | – | 92.3% | ~1.82 nM | 8.88 | –
19 | Cc1ccnc(C)c1Nc1nccc2c1ccn2CC1CCO1 (single isomer, unassigned) [Compound 25a] | 102% | 5.89 nM | 92% | – | – | 7.3
20 | CCCCn1ccc2c(Nc3c(C)cncc3Cl)nccc21 [Compound 5] | 101% | – | 67% | 67.6 nM | 7.95 | –
21 | FC(F)(F)CCn1ccc2c(Nc3c(Cl)cccc3Cl)nccc21 [Compound 200] | 103% | 23.4 nM | 70.1% | 513 nM | – | –
22 | CC(C)=C(F)Cn1ccc2c(Nc3c(C)cc(-c4cnn(C)c4)cc3C)nccc21 [Compound 208] | 101% | 10.2 nM | 90.1% | 72.4 nM | – | –
23 | CCCCn1ccc2c(Nc3c(C)cnnc3C(C)C)nccc21 [Compound 19] | 102% | – | 94% | 83.2 nM | 7.8 | –
24 | CCCCn1ccc2c(Nc3c(C)ccc(C(=O)N4CCCC4)c3C)nccc21 [Compound 55] | 103% | 1.7 nM | 104% | 22.4 nM | – | –
25 | Cc1cc(-c2cnn(C)c2)cc(C)c1Nc1nccc2c1ccn2CC(F)(F)C(C)C [Compound 178] | 101% | 1.12 nM | 103% | 2.95 nM | – | –
26 | Cc1ccnc(C(F)F)c1Nc1nccc2c1ccn2CC1CC(F)(F)C1 [Compound 115] | 99.6% | – | 52.3% | ~891 nM | 7.2 | –
